Assay results from the supplement of paper PMC10307832.

What was measured:
Experiment in all cases: relative viability (nuclei count vs DMSO), 5 days (fraction); higher = more cells survive
BMX-IN-1 + Palbociclib = compound: C=CC(=O)Nc1cc(-n2c(=O)ccc3cnc4ccc(-c5ccc(NS(C)(=O)=O)cc5)cc4c32)ccc1C [BMX-IN-1] + CC(=O)c1c(C)c2cnc(Nc3ccc(N4CCNCC4)cn3)nc2n(C2CCCC2)c1=O [Palbociclib] (partner 0.5 µM)
Method in brief: (§1)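 Medians of duplicate plates are given as relative viability. That measure is the nuclei count in treated wells divided by the count in vehicle wells. Counts were taken on 4× images of lung cancer cell lines in 1536-well plates, 5 days after pin-tool dosing the day after seeding with one drug alone or a fixed anchor-drug dose plus five library-drug doses (not always all listed) in √10 steps.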

Ibrutinib + Tozasertib = compound: C=CC(=O)N1CCC[C@@H](n2nc(-c3ccc(Oc4ccccc4)cc3)c3c(N)ncnc32)C1 [Ibrutinib] + Cc1cc(Nc2cc(N3CCN(C)CC3)nc(Sc3ccc(NC(=O)C4CC4)cc3)n2)n[nH]1 [Tozasertib] (partner 0.1 µM)
Method in brief: as §1

Ibrutinib + Vorinostat = compound: C=CC(=O)N1CCC[C@@H](n2nc(-c3ccc(Oc4ccccc4)cc3)c3c(N)ncnc32)C1 [Ibrutinib] + O=C(CCCCCCC(=O)Nc1ccccc1)NO [Vorinostat] (partner 1 µM)
Method in brief: as §1

PAC-1 + Phenformin = compound: C=CCc1cccc(/C=N/NC(=O)CN2CCN(Cc3ccccc3)CC2)c1O [PAC-1] + N=C(N)NC(=N)NCCc1ccccc1 [Phenformin] (partner 250 µM)
Method in brief: as §1

Cell Line | relative viability (BMX-IN-1 + Palbociclib; first compound 0.02 µM) | relative viability (BMX-IN-1 + Palbociclib; first compound 0.2 µM) | relative viability (BMX-IN-1 + Palbociclib; first compound 0.6325 µM) | relative viability (BMX-IN-1 + Palbociclib; first compound 2 µM) | relative viability (Ibrutinib + Tozasertib; first compound 0.005 µM) | relative viability (Ibrutinib + Tozasertib; first compound 0.01581 µM) | relative viability (Ibrutinib + Tozasertib; first compound 0.05 µM) | relative viability (Ibrutinib + Tozasertib; first compound 0.1581 µM) | relative viability (Ibrutinib + Tozasertib; first compound 0.5 µM) | relative viability (Ibrutinib + Vorinostat; first compound 0.005 µM) | relative viability (Ibrutinib + Vorinostat; first compound 0.01581 µM) | relative viability (Ibrutinib + Vorinostat; first compound 0.05 µM) | relative viability (Ibrutinib + Vorinostat; first compound 0.1581 µM) | relative viability (Ibrutinib + Vorinostat; first compound 0.5 µM) | relative viability (PAC-1 + Phenformin; first compound 0.02 µM) | relative viability (PAC-1 + Phenformin; first compound 0.06325 µM) | relative viability (PAC-1 + Phenformin; first compound 0.2 µM) | relative viability (PAC-1 + Phenformin; first compound 2 µM)
201T | 0.392 | 0.391 | 0.42 | 0.348 | 0.984 | 0.916 | 0.971 | 0.959 | 0.849 | 0.94 | 0.982 | 0.969 | 0.883 | 0.889 | 0.43 | 0.47 | 0.468 | 0.453
A549 | – | – | – | – | – | – | – | – | – | – | – | – | – | – | 0.22 | 0.167 | 0.139 | 0.171
A-427 | 0.488 | 0.573 | 0.571 | 0.504 | 0.22 | 0.185 | 0.281 | 0.23 | 0.212 | 0.883 | 0.875 | 0.887 | – | 0.867 | 0.328 | 0.384 | 0.338 | 0.279
ABC-1 | 0.76 | 0.503 | 0.537 | 0.589 | 0.151 | 0.149 | 0.159 | 0.198 | 0.187 | 0.795 | 1.05 | – | – | 1.63 | 0.217 | 0.231 | 0.24 | 0.21
BEN | 0.489 | 0.479 | 0.479 | 0.518 | – | 0.459 | 0.471 | 0.561 | 0.536 | 0.513 | 0.609 | 0.599 | 0.538 | 0.501 | 0.273 | 0.282 | 0.266 | 0.302
CAL-12T | 0.466 | 0.415 | 0.523 | 0.503 | 0.324 | 0.309 | 0.268 | 0.365 | 0.151 | 0.617 | 0.623 | 0.464 | 0.841 | 0.621 | 0.6 | 0.657 | 0.542 | 0.571
COR-L23 | 0.306 | 0.293 | 0.384 | 0.311 | 0.209 | 0.214 | 0.247 | 0.227 | 0.181 | 0.326 | 0.51 | 0.522 | 0.477 | 0.566 | 0.458 | 0.434 | 0.423 | 0.429
COR-L 105 | 0.449 | 0.442 | 0.447 | 0.39 | 0.35 | 0.337 | 0.339 | 0.373 | 0.303 | 0.709 | 0.659 | 0.526 | 0.833 | 0.388 | 0.465 | 0.484 | 0.428 | 0.455
ChaGo-K-1 | 0.996 | 1.13 | 0.905 | 0.987 | 0.228 | 0.218 | 0.212 | 0.232 | 0.22 | 0.752 | 0.766 | 0.688 | 0.708 | 0.75 | 0.462 | 0.493 | 0.513 | 0.439
EKVX | 0.424 | 0.37 | 0.773 | 0.416 | 0.427 | 0.332 | 0.4 | 0.426 | 0.269 | 0.811 | 0.549 | 0.633 | 0.657 | 0.365 | 0.232 | 0.244 | 0.226 | 0.195
EMC-BAC-2 | 0.543 | 0.537 | 0.528 | 0.516 | 0.303 | 0.295 | 0.31 | 0.325 | 0.286 | 0.412 | 0.525 | – | – | 0.453 | 0.496 | 0.556 | 0.52 | 0.511
EPLC-272H | 0.323 | 0.324 | 0.323 | 0.317 | 0.171 | 0.171 | 0.25 | 0.126 | 0.193 | 0.248 | 0.4 | 0.31 | 0.597 | 0.401 | 0.298 | 0.339 | 0.241 | 0.288
H3255 | 0.311 | 0.318 | 0.349 | 0.299 | 0.729 | 0.615 | 0.581 | 0.672 | 0.312 | 0.889 | 0.725 | – | 0.764 | 0.163 | 0.398 | 0.394 | 0.334 | 0.308
HARA | 0.304 | 0.299 | 0.258 | 0.247 | 0.0994 | 0.117 | 0.0863 | 0.0992 | 0.096 | 0.606 | 0.482 | 0.663 | 0.64 | 0.553 | 0.438 | 0.476 | 0.446 | 0.507
HCC-15 | 0.844 | 0.762 | 0.84 | 0.802 | 0.464 | 0.413 | 0.563 | 0.396 | 0.357 | 0.911 | 0.873 | 0.826 | 0.897 | 0.796 | 0.466 | 0.487 | 0.457 | 0.491
HCC-44 | 1.02 | 0.96 | 0.996 | 0.979 | 1.1 | 0.945 | 0.734 | – | 0.998 | 1.21 | – | 1.2 | 1.2 | 1.15 | 0.184 | 0.18 | 0.17 | 0.131
HCC-78 | 0.447 | 0.464 | 0.492 | 0.549 | 0.577 | 0.327 | 0.434 | 0.494 | 0.343 | – | 0.403 | 0.405 | 0.446 | 0.388 | 0.8 | 0.639 | 0.809 | 0.759
HCC-366 | 0.535 | 0.385 | 0.454 | 0.485 | 0.127 | 0.116 | 0.107 | 0.118 | 0.0964 | 0.396 | 0.387 | 0.306 | 0.443 | 0.404 | 0.612 | 0.634 | 0.595 | 0.655
HCC-827 | 0.486 | 0.409 | 0.503 | 0.467 | 0.396 | 0.39 | 0.513 | 0.437 | 0.224 | 0.916 | 0.943 | 1.06 | 0.875 | 0.861 | 0.383 | 0.402 | 0.368 | 0.4
